Patent publication US10294202B2, “Pyrrolidinones as herbicides” (FMC Corporation, priority 2013, dated 2019)

Experiments:
crabgrass, large = assay: Test C pre-/postemergence herbicide test; type: in vivo, Digitaria sanguinalis
Summary of the method: (§1)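 Test compounds, formulated in a surfactant-containing non-phytotoxic solvent blend, are applied to seeded loam/sand soil (preemergence) and to young plants at the 1- to 4-leaf stage in peat-based medium (postemergence). Plants stay 13 to 15 days under greenhouse conditions, then are scored visually relative to controls, 0 = no effect, 100 = complete control.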

oilseed rape = assay: Test C pre-/postemergence herbicide test; type: in vivo, Brassica napus
Summary of the method: as §1

pigweed = assay: Test C pre-/postemergence herbicide test; type: in vivo, Amaranthus retroflexus
Summary of the method: as §1

rice = assay: Test B flooded paddy test; type: in vivo, Oryza sativa; settings: Flood, scale of 0 to 100 where 0 is no effect and 100 is complete control
Summary of the method: (§2)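 Plants grown to 2-leaf stage; pots flooded 3 cm above soil and compound applied directly into paddy water, depth held throughout. Visual rating against untreated controls after 13 to 15 days in greenhouse, 0 (no effect) to 100 (complete control).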

wheat (winter wheat) = assay: Test C pre-/postemergence herbicide test; type: in vivo, Triticum aestivum
Summary of the method: as §1

blackgrass = assay: Test C pre-/postemergence herbicide test; type: in vivo, Alopecurus myosuroides; settings: for Blackgrass plant response rating: scale 0 to 100, 0 is no effect and 100 is complete control
Summary of the method: as §1

ragweed = assay: Test C pre-/postemergence herbicide test; type: in vivo, Ambrosia elatior
Summary of the method: as §1

wheat = assay: Test A pre-/postemergence herbicide test; type: in vivo, Triticum aestivum
Summary of the method: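 Planted in loam–sand blend; treated the same day preemergence by directed soil spray, while separately grown plants at one- to two-leaf stage got postemergence spray. Compared visually with untreated controls after approximately 10 days; 100 means complete control.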

barnyardgrass = assay: Test B flooded paddy test; type: in vivo, Echinochloa crus-galli; settings: Flood, scale of 0 to 100 where 0 is no effect and 100 is complete control
Summary of the method: as §2

velvetleaf = assay: Test C pre-/postemergence herbicide test; type: in vivo, Abutilon theophrasti
Summary of the method: as §1

johnsongrass = assay: Test C pre-/postemergence herbicide test; type: in vivo, Sorghum halepense
Summary of the method: as §1

sedge, umbrella = assay: Test B flooded paddy test; type: in vivo, Cyperus difformis; settings: Flood, scale of 0 to 100 where 0 is no effect and 100 is complete control
Summary of the method: as §2

[1] = Postemergence, 31 g ai/ha, scale 0 to 100 (0 no effect, 100 complete control)
[2] = Postemergence, 62 g ai/ha, scale 0 (no effect) to 100 (complete control)
[3] = Postemergence, 125 g ai/ha, scale 0 to 100 (0 no effect, 100 complete control)
[4] = Postemergence, 250 g ai/ha, scale 0 to 100 (0 no effect, 100 complete control)
[5] = Preemergence, 31 g ai/ha, scale 0 to 100, 0 is no effect and 100 is complete control
[6] = Preemergence, 62 g ai/ha, scale 0 to 100
[7] = Preemergence, 125 g ai/ha, scale 0 to 100 (0 no effect, 100 complete control)
[8] = Preemergence, 62 g ai/ha, scale 0 to 100 (0 no effect, 100 complete control)

In the case of `O=C1NCC(c2ccc(F)cc2)C1C(=O)Nc1cccc(F)c1F` (racemic) [Compound 119], the “Plant response rating, Crabgrass, Large” value (crabgrass, large; [1]) is reported as 55, the “Plant response rating, Crabgrass, Large” value (crabgrass, large; [2]) is reported as 65 and the “Plant response rating, Crabgrass, Large” value (crabgrass, large; [3]) is reported as 80. The “Plant response rating, Crabgrass, Large” value (crabgrass, large; [4]) was 90, the “Crabgrass, Large plant response rating” value (crabgrass, large; [5]) was 98 and the “Plant response rating, Crabgrass, Large” value (crabgrass, large; [6]) was 98. The “Plant response rating, Crabgrass, Large” value (crabgrass, large; [7]) was 100, the “Plant response rating (scale of 0 to 100), Crabgrass, Large” value (crabgrass, large; Preemergence, 250 g ai/ha) was 100 and the “Plant response rating, Oilseed Rape” value (oilseed rape; [1]) was 0. For the same compound, the “Plant response rating, Oilseed Rape” value (oilseed rape; [2]) was 0, the “Plant response rating, Oilseed Rape” value (oilseed rape; [3]) was 0 and the “Plant response rating, Oilseed Rape” value (oilseed rape; [4]) was 5. For the same compound, the “Oilseed Rape plant response rating” value (oilseed rape; [5]) was 0, the “Plant response rating, Oilseed Rape” value (oilseed rape; [6]) was 5 and the “Plant response rating, Oilseed Rape” value (oilseed rape; [7]) was 80. The “Plant response rating (scale of 0 to 100), Oilseed Rape” value (oilseed rape; Preemergence, 250 g ai/ha) was 80, the “Plant response rating, Pigweed” value (pigweed; [1]) was 10 and the “Plant response rating, Pigweed” value (pigweed; [2]) was 10. The “Plant response rating, Pigweed” value (pigweed; [3]) was 15, the “Plant response rating, Pigweed” value (pigweed; [4]) was 25 and the “Pigweed plant response rating” value (pigweed; [5]) was 30. The “Plant response rating, Pigweed” value (pigweed; [6]) was 60, the “Plant response rating, Pigweed” value (pigweed; [7]) was 75 and the “Plant response rating (scale of 0 to 100), Pigweed” value (pigweed; Preemergence, 250 g ai/ha) was 85. For the same compound, the “Plant response rating, Rice” value (rice; 500 g ai/ha) was 10, the “Plant response rating, Wheat” value (wheat (winter wheat); [1]) was 0 and the “Plant response rating, Wheat” value (wheat (winter wheat); [2]) was 0. The “Plant response rating, Wheat” value (wheat (winter wheat); [3]) was 0, the “Plant response rating, Wheat” value (wheat (winter wheat); [4]) was 0 and the “Wheat plant response rating” value (wheat (winter wheat); [5]) was 5. For the same compound, the “Plant response rating, Wheat” value (wheat (winter wheat); [6]) was 5, the “Plant response rating, Wheat” value (wheat (winter wheat); [7]) was 60 and the “Plant response rating (scale of 0 to 100), Wheat” value (wheat (winter wheat); Preemergence, 250 g ai/ha) was 90. For the same compound, the “Plant response rating, Blackgrass” value (blackgrass; [1]) was 0, the “Plant response rating, Blackgrass” value (blackgrass; [2]) was 0 and the “Plant response rating, Blackgrass” value (blackgrass; [3]) was 0. The “Plant response rating, Blackgrass” value (blackgrass; [4]) was 0, the “Blackgrass plant response rating” value (blackgrass; Preemergence, 31 g ai/ha) was 0 and the “Plant response rating, Blackgrass” value (blackgrass; [6]) was 70. For the same compound, the “Plant response rating, Blackgrass” value (blackgrass; [7]) was 80, the “Plant response rating (scale of 0 to 100), Blackgrass” value (blackgrass; Preemergence, 250 g ai/ha) was 85 and the “Plant response rating, Ragweed” value (ragweed; [1]) was 20. For the same compound, the “Plant response rating, Ragweed” value (ragweed; [2]) was 0, the “Plant response rating, Ragweed” value (ragweed; [3]) was 45 and the “Plant response rating, Ragweed” value (ragweed; [4]) was 25. For the same compound, the “Ragweed plant response rating” value (ragweed; [5]) was 60, the “Plant response rating, Ragweed” value (ragweed; [6]) was 35 and the “Plant response rating, Ragweed” value (ragweed; [7]) was 75. For the same compound, the “Plant response rating (scale of 0 to 100), Ragweed” value (ragweed; Preemergence, 250 g ai/ha) was 80, the “Plant response rating, Wheat” value (wheat; Postemergence, 125 g ai/ha, 0 to 100 scale, 0 no effect, 100 complete control) was 20 and the “Wheat plant response rating (0 to 100 scale, 0 is no effect, 100 is complete control)” value (wheat; Postemergence, 500 g ai/ha) was 70. The “Plant response rating, Barnyardgrass” value (barnyardgrass; 500 g ai/ha) was 80, the “Plant response rating, Velvetleaf” value (velvetleaf; [1]) was 0 and the “Plant response rating, Velvetleaf” value (velvetleaf; [2]) was 0. For the same compound, the “Plant response rating, Velvetleaf” value (velvetleaf; [3]) was 15, the “Plant response rating, Velvetleaf” value (velvetleaf; [4]) was 20 and the “Velvetleaf plant response rating” value (velvetleaf; [5]) was 0. The “Plant response rating, Velvetleaf” value (velvetleaf; [6]) was 15, the “Plant response rating, Velvetleaf” value (velvetleaf; [7]) was 40 and the “Plant response rating (scale of 0 to 100), Velvetleaf” value (velvetleaf; Preemergence, 250 g ai/ha) was 50. For the same compound, the “Plant response rating, Johnsongrass” value (johnsongrass; [1]) was 0, the “Plant response rating, Johnsongrass” value (johnsongrass; [2]) was 0 and the “Plant response rating, Johnsongrass” value (johnsongrass; [3]) was 0. For the same compound, the “Plant response rating, Johnsongrass” value (johnsongrass; [4]) was 5, the “Johnsongrass plant response rating” value (johnsongrass; [5]) was 0 and the “Plant response rating, Johnsongrass” value (johnsongrass; [6]) was 0. The “Plant response rating, Johnsongrass” value (johnsongrass; [7]) was 30, the “Plant response rating (scale of 0 to 100), Johnsongrass” value (johnsongrass; Preemergence, 250 g ai/ha) was 70 and the “Plant response rating, Sedge, Umbrella” value (sedge, umbrella; 500 g ai/ha) was 0.
With `O=C1NCC(c2ccc(C(F)(F)F)c(F)c2)C1C(=O)Nc1ccccc1F` (racemic) [Compound 246] the “Crabgrass, Large plant response rating” value (crabgrass, large; [5]) was 95, the “Crabgrass, Large plant response rating” value (crabgrass, large; [8]) was 95 and the “Plant response rating, Crabgrass, Large” value (crabgrass, large; [7]) was 95. For the same compound, the “Plant response rating (scale of 0 to 100), Crabgrass, Large” value (crabgrass, large; Preemergence, 250 g ai/ha) was 98, the “Oilseed Rape plant response rating” value (oilseed rape; [5]) was 0 and the “Oilseed Rape plant response rating” value (oilseed rape; [8]) was 30. The “Plant response rating, Oilseed Rape” value (oilseed rape; [7]) was 0, the “Plant response rating (scale of 0 to 100), Oilseed Rape” value (oilseed rape; Preemergence, 250 g ai/ha) was 30 and the “Pigweed plant response rating” value (pigweed; [5]) was 30. The “Pigweed plant response rating” value (pigweed; [8]) was 75, the “Plant response rating, Pigweed” value (pigweed; [7]) was 75 and the “Plant response rating (scale of 0 to 100), Pigweed” value (pigweed; Preemergence, 250 g ai/ha) was 100. The “Plant response rating, Rice” value (rice; 1000 g ai/ha) was 20, the “Wheat plant response rating” value (wheat (winter wheat); [5]) was 0 and the “Wheat plant response rating” value (wheat (winter wheat); [8]) was 0. For the same compound, the “Plant response rating, Wheat” value (wheat (winter wheat); [7]) was 10, the “Plant response rating (scale of 0 to 100), Wheat” value (wheat (winter wheat); Preemergence, 250 g ai/ha) was 30 and the “Blackgrass plant response rating” value (blackgrass; Preemergence, 31 g ai/ha) was 0. For the same compound, the “Plant response rating, Blackgrass” value (blackgrass; [6]) was 0, the “Plant response rating, Blackgrass” value (blackgrass; [7]) was 5 and the “Plant response rating (scale of 0 to 100), Blackgrass” value (blackgrass; Preemergence, 250 g ai/ha) was 70. For the same compound, the “Ragweed plant response rating” value (ragweed; [5]) was 0, the “Ragweed plant response rating” value (ragweed; [8]) was 0 and the “Plant response rating, Ragweed” value (ragweed; [7]) was 0. For the same compound, the “Plant response rating (scale of 0 to 100), Ragweed” value (ragweed; Preemergence, 250 g ai/ha) was 40, the “Plant response rating, Wheat” value (wheat; Postemergence, 125 g ai/ha, 0 to 100 scale, 0 is no effect, 100 is complete control) was 0 and the “Plant response rating, Wheat” value (wheat; Postemergence, 500 g ai/ha, 0 to 100 scale (0 no effect, 100 complete control)) was 30. For the same compound, the “Plant response rating, Wheat” value (wheat; Preemergence, 125 g ai/ha, 0 to 100 scale where 0 is no effect and 100 is complete control) was 0, the “Plant response rating, Barnyardgrass” value (barnyardgrass; 1000 g ai/ha) was 60 and the “Velvetleaf plant response rating” value (velvetleaf; [5]) was 0. For the same compound, the “Velvetleaf plant response rating” value (velvetleaf; [8]) was 0, the “Plant response rating, Velvetleaf” value (velvetleaf; [7]) was 0 and the “Plant response rating (scale of 0 to 100), Velvetleaf” value (velvetleaf; Preemergence, 250 g ai/ha) was 0. The “Johnsongrass plant response rating” value (johnsongrass; [5]) was 0, the “Johnsongrass plant response rating” value (johnsongrass; [8]) was 20 and the “Plant response rating, Johnsongrass” value (johnsongrass; [7]) was 0. The “Plant response rating (scale of 0 to 100), Johnsongrass” value (johnsongrass; Preemergence, 250 g ai/ha) was 5 and the “Plant response rating, Sedge, Umbrella” value (sedge, umbrella; 1000 g ai/ha) was 20.
